US10653666B1, “Cardioprotective nano-pharmaceutical formulation” (King Abdulaziz University, priority 2020, dated 2020)

How the values were obtained:
Type in all cases: in vivo, rat
[1] = system: MetS animals (high-fructose high-salt diet); assay: Invasive real-time cardiac contractility recording in metabolic syndrome rats; conditions: vs MetS; for Cardiac contractility (contractility index): oral 25 mg/kg/day in the last 6 weeks of 12 weeks diet
Method: (§1) Rats used in this study were male Wistar 6-8 weeks old rats weighing 180-200 g (King Fand Medical Research Center, King Abdulaziz University, Jeddah, Saudi Arabia). Clear polypropylene cages were used to house 4 rats each and included access to purified water and standard rodent pellets. Constant animal housing conditions applied constituting of alternating 12 hours light and dark, a temperature of 22±3° C., a relative humidity of 50-60% and adequate ventilation. Experimental protocol was approved by the Research Ethical Committee, Faculty of Pharmacy, King Abdulaziz University, Jeddah, Saudi Arabia and was conducted in accordance with the Saudi Arabia Research Bioethics and Regulations.
Animals were randomly divided into 5 experimental groups; Control (C) rats received regular tap water and food pellets. MetS group (M) in which fructose (10%) was added to drinking water and NaCl (3%) to food pellets. This regimen began in 6-week old rats and continued for 12 weeks. Standard quercetin group (MQ) administered 25 mg/kg quercetin suspension every day in the last 6 weeks of fructose and salt administration. Nano formula vehicle group (MN) received the same volumes of SNEDDS ingredients (Pumpkin seed oil, D-α-tocopheryl polyethylene glycol succinate (TPGS) and PEG 200) without quercetin every day in the last 6 weeks of fructose and salt administration. The nanoformula group (MNQ) administered 25 mg/kg of quercetin in the form of nano-pharmaceutical formulation every day in the last 6 weeks of fructose and salt administration.
Invasive real-time recording of cardiac contractility was carried out according to the method described in previous publication from our laboratories (El-Bassossy et al., 2017). After urethane anaethesia, animals were placed on controlled heating pads, and body temperature, measured via a rectal probe, was maintained at 37° C. A microtip pressure transducer (SPR-320; Millar Instruments, Houston, Tex., USA) was inserted into the right carotid artery and advanced into the left ventricle under pressure control. After stabilization for 5 min, the signals were continuously recorded at a sampling rate of 1000 s−1. The microtip catheter was connected to a PowerLab Data Interface Module connected to a PC running LabChart professional software (version 7.3; ADI Instruments, Bella Vista, Australia) containing a blood pressure module.

[2] = system: MetS animals (high-fructose high-salt diet); assay: Cardiac conductivity (surface ECG) recording in metabolic syndrome rats; conditions: oral 25 mg/kg/day in the last 6 weeks, vs MetS, p<0.05
Method: Rats used in this study were male Wistar 6-8 weeks old rats weighing 180-200 g (King Fand Medical Research Center, King Abdulaziz University, Jeddah, Saudi Arabia). Clear polypropylene cages were used to house 4 rats each and included access to purified water and standard rodent pellets. Constant animal housing conditions applied constituting of alternating 12 hours light and dark, a temperature of 22±3° C., a relative humidity of 50-60% and adequate ventilation. Experimental protocol was approved by the Research Ethical Committee, Faculty of Pharmacy, King Abdulaziz University, Jeddah, Saudi Arabia and was conducted in accordance with the Saudi Arabia Research Bioethics and Regulations. Animals were randomly divided into 5 experimental groups; Control (C) rats received regular tap water and food pellets. MetS group (M) in which fructose (10%) was added to drinking water and NaCl (3%) to food pellets. This regimen began in 6-week old rats and continued for 12 weeks. Standard quercetin group (MQ) administered 25 mg/kg quercetin suspension every day in the last 6 weeks of fructose and salt administration. […] The standard limb lead II of the surface ECG was recorded by the Powerlab system (ADI Instruments) connected to a PC running LabChart professional software (version 7.3) containing an ECG module, which detects different components of the ECG. […]

[3] = system: MetS animals (high-fructose high-salt diet); assay: Blood pressure in metabolic syndrome rats; conditions: oral 25 mg/kg/day in the last 6 weeks, vs MetS, p<0.05
Method: as §1
Animals were randomly divided into 5 experimental groups; Control (C) rats received regular tap water and food pellets. MetS group (M) in which fructose (10%) was added to drinking water and NaCl (3%) to food pellets. […]
Invasive real-time recording of cardiac contractility was carried out according to the method described in previous publication from our laboratories (El-Bassossy et al., 2017). After urethane anaethesia, animals were placed on controlled heating pads, and body temperature, measured via a rectal probe, was maintained at 37° C. […] After stabilization for 5 min, the signals were continuously recorded at a sampling rate of 1000 s−1. […]

[4] = system: MetS animals (high-fructose high-salt diet); assay: Overall protection from cardiovascular complication of metabolic syndrome in rats; conditions: oral 25 mg/kg/day in the last 6 weeks
Method: Rats used in this study were male Wistar 6-8 weeks old rats weighing 180-200 g (King Fand Medical Research Center, King Abdulaziz University, Jeddah, Saudi Arabia). Clear polypropylene cages were used to house 4 rats each and included access to purified water and standard rodent pellets. Constant animal housing conditions applied constituting of alternating 12 hours light and dark, a temperature of 22±3° C., a relative humidity of 50-60% and adequate ventilation. Experimental protocol was approved by the Research Ethical Committee, Faculty of Pharmacy, King Abdulaziz University, Jeddah, Saudi Arabia and was conducted in accordance with the Saudi Arabia Research Bioethics and Regulations. Animals were randomly divided into 5 experimental groups; Control (C) rats received regular tap water and food pellets. MetS group (M) in which fructose (10%) was added to drinking water and NaCl (3%) to food pellets. This regimen began in 6-week old rats and continued for 12 weeks. Standard quercetin group (MQ) administered 25 mg/kg quercetin suspension every day in the last 6 weeks of fructose and salt administration. Nano formula vehicle group (MN) received the same volumes of SNEDDS ingredients (Pumpkin seed oil, D-α-tocopheryl polyethylene glycol succinate (TPGS) and PEG 200) without quercetin every day in the last 6 weeks of fructose and salt administration. […]

[5] = oral 25 mg/kg/day in the last 6 weeks, p<0.05

Compound: O=c1c(O)c(-c2ccc(O)c(O)c2)oc2cc(O)cc(O)c12 [regular size quercetin, quercetin]
- Cardiac contractility (contractility index) ([1]; p<0.05, 25 mg/kg/day): did not significantly affect
- Cardiac contractility (contractility index) ([1]; p<0.05, listed as suspension of quercetin, 25 mg/kg/day): failed to affect
- Diastolic function (−dP/dt, dp/dt min) [1, 5]: did not significantly affect
- Left ventricular systolic function (dP/dt max) [1, 5]: did not significantly affect
- JT interval [2]: did not significantly improve
- QTc interval [2]: did not significantly improve
- Diastolic blood pressure (DBP) [3]: partially reduced
- Systolic blood pressure (SBP) [3]: partially reduced
- Cardiovascular function / cardioprotective effect (overall) [4]: failed to completely protect
